Assay results: patent publication US12325697B2 (Nimbus Clio, Inc., priority 2021, dated 2025)

How the values were obtained:
[1] = biological target: Recombinant human Cbl-b (aa 36-427) (Homo sapiens (Human), UniProt Q13191); experiment: Cbl-b Biochemical Assay (TR-FRET); details: read-out: TR-FRET hCbl-b IC50
Procedure, shortened: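 IC50 from 4-parameter fit of % inhibition (DMSO max, reference-inhibitor min), duplicate ten-point series. Compound preincubated with 6 nM Cbl-b, then Src-Zap70 (1-2.5 nM)/0.5 mM ATP reaction 60 min RT; EDTA quench with labelled UBE2D2-Ub and streptavidin-terbium, 60 min, HTRF at 520 nm.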

[2] = biological target: Recombinant human c-Cbl (aa 47-435) (Homo sapiens (Human), UniProt P22681); experiment: c-Cbl Biochemical Assay (TR-FRET)
Procedure, shortened: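 TR-FRET binding of UBE2D2-Ub-Bodipy (100 nM) to biotinylated c-Cbl (aa 47-435, 6 nM) via Streptavidin-Tb, measured after c-Cbl activation by Src-Zap70 with 0.5 mM ATP (60-90 min RT, 30 min compound preincubation). Ten-point half-log dilutions, 1% DMSO; IC50 by 4-parameter fit of normalized inhibition.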

Recombinant human c-Cbl (aa 47-435), sequence (P22681 47-435): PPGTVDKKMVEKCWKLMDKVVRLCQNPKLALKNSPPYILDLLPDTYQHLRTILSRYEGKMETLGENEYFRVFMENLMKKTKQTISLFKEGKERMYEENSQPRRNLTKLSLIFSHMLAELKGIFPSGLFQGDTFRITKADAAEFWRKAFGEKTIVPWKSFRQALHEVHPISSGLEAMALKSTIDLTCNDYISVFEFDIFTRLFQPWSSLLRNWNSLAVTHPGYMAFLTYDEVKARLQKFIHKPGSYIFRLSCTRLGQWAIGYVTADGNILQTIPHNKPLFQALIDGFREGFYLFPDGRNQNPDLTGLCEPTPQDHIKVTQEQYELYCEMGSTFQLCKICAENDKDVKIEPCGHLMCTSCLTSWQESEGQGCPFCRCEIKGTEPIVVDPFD
Recombinant human Cbl-b (aa 36-427), sequence (Q13191 36-427): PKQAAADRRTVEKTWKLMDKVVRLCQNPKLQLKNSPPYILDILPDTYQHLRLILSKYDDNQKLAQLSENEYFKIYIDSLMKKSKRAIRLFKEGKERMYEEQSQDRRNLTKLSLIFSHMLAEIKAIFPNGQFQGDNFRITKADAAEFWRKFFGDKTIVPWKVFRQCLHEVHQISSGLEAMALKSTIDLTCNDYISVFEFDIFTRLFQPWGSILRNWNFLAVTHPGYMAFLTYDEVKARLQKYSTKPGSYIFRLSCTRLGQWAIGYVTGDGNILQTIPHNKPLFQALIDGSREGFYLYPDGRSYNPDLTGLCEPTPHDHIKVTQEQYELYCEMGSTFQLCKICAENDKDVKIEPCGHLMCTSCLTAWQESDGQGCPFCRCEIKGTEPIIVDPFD

SMILES	IC50 [1] [nM]	IC50 [2] [nM]
Cn1cnnc1-c1cc(Cl)ccc1-c1cc(C2CC2)nc(N2Cc3ccc(CO)cc3C2=O)c1 [AIU-1, 2-(4-(4-Chloro-2-(4-methyl-4H-1,2,4-triazol-3-yl)phenyl)-6-cyclopropylpyridin-2-yl)-6-(hydroxymethyl)isoindolin-1-one]	≤ 200	≤ 200
Cn1cnnc1-c1cc(Cl)ccc1-c1cc(C2CC2)nc(N2Cc3ccc(CNCC4CCC4)cc3C2=O)c1 [AIV-2, 2-(4-(4-Chloro-2-(4-methyl-4H-1,2,4-triazol-3-yl)phenyl) -6-cyclopropylpyridin-2-yl)-6-(((cyclobutylmethyl)amino)methyl) isoindolin-1-one]	≤ 200	≤ 200
COC(C)(C)CNCc1ccc2c(c1)C(=O)N(c1cc(-c3ccc(C#N)cc3-c3nncn3C)cc(C3CC3)n1)C2 [AIW-2, 4-[2-Cyclopropyl-6-(6-{[(2-methoxy-2-methylpropyl)amino]methyl}-1-oxo-3H-isoindol-2-yl)pyridin-4-yl]-3-(4-methyl-1,2,4-triazol-3-yl)benzonitrile]	≤ 200	≤ 200
CN(Cc1ccc2c(c1)C(=O)N(c1cc(-c3ccc(C#N)cc3-c3nncn3C)cc(C3CC3)n1)C2)CC1CC1 [AIX-2, 4-[2-Cyclopropyl-6-(6-{[(cyclopropylmethyl)(methyl)amino]methyl}-1-oxo-3H-isoindol-2-yl)pyridin-4-yl]-3-(4-methyl-1,2,4-triazol-3-yl)benzonitrile]	≤ 200	≤ 200
CNCCOCc1ccc2c(c1)C(=O)N(c1cc(-c3ccc(C#N)cc3-c3nncn3C)cc(C3CC3)n1)C2 [AIY-2, 4-[2-Cyclopropyl-6-(6-{[2-(methylamino)ethoxy]methyl}-1-oxo-3H-isoindol-2-yl)pyridin-4-yl]-3-(4-methyl-1,2,4-triazol-3-yl)benzonitrile]	≤ 200	≤ 200
CN1CC[C@@H](NCc2ccc3c(c2)C(=O)N(c2cc(-c4ccc(C#N)cc4-c4nncn4C)cc(C4CC4)n2)C3)C1=O [AIZ-2, 4-{2-Cyclopropyl-6-[6-({[(3R)-1-methyl-2-oxopyrrolidin-3-yl]amino}methyl)-1-oxo-3H-isoindol-2-yl]pyridin-4-yl}-3-(4-methyl-1,2,4-triazol-3-yl)benzonitrile]	≤ 200	≤ 200
CC[C@H](O)CNCc1ccc2c(c1)C(=O)N(c1cc(-c3ccc(C#N)cc3-c3nncn3C)cc(C3CC3)n1)C2 [AJA-2, (S)-4-(2-Cyclopropyl-6-(6-(((2-hydroxybutyl)amino)methyl)-1-oxoisoindolin-2-yl)pyridin-4-yl)-3-(4-methyl-4H-1,2,4-triazol-3-yl)benzonitrile]	≤ 200	≤ 200
CCOc1cc(-c2ccc(F)cc2-c2nncn2C)cc(N2Cc3c(OC)cc(CO)cc3C2=O)n1 [AJC-1, 2-(6-Ethoxy-4-(4-fluoro-2-(4-methyl-4H-1,2,4-triazol-3-yl)phenyl)pyridin-2-yl)-6-(hydroxymethyl)-4-methoxyisoindolin-1-one]	≤ 200	≤ 200
Cn1cnnc1-c1cc(C#N)ccc1-c1cccc(N2Cc3ccc(CO)cc3C2=O)c1 [AJD-2, 3′-(6-(Hydroxymethyl)-1-oxoisoindolin-2-yl)-2-(4-methyl-4H-1,2,4-triazol-3-yl)-[1,1′-biphenyl]-4-carbonitrile]	1000 to 10000	1000 to 10000
Cn1cnnc1-c1cc(C#N)ccc1-c1cccc(N2Cc3ccc(CNCC4CC4)cc3C2=O)c1 [AJE-2, 3′-(6-(((Cyclopropylmethyl)amino)methyl)-1-oxoisoindolin-2-yl)-2-(4-methyl-4H-1,2,4-triazol-3-yl)-[1,1′-biphenyl]-4-carbonitrile]	≤ 200	≤ 200
COCCNCc1ccc2c(c1)C(=O)N(c1cccc(-c3ccc(C#N)cc3-c3nncn3C)c1)C2 [AJF-1, 3′-(6-(((2-Methoxyethyl)amino)methyl)-1-oxoisoindolin-2-yl)-2-(4-methyl-4H-1,2,4-triazol-3-yl)-[1,1′-biphenyl]-4-carbonitrile]	≤ 200	≤ 200
COCC1(NCc2ccc3c(c2)C(=O)N(c2cc(-c4ccc(C#N)cc4-c4nncn4C)cc(C4CC4)n2)C3)CCC1 [AJG-2, 4-(2-cyclopropyl-6-(6-(((1-(methoxymethyl)cyclobutyl)amino)methyl)-1-oxoisoindolin-2-yl)pyridin-4-yl)-3-(4-methyl-4H-1,2,4-triazol-3-yl)benzonitrile]	≤ 200	≤ 200
CC(=O)c1ccc2c(c1)C(=O)N(c1cc(-c3ccc(C#N)cc3-c3nncn3C)cc(C3CC3)n1)C2 [AJH-3, 4-(2-(6-Acetyl-1-oxoisoindolin-2-yl)-6-cyclopropylpyridin-4-yl)-3-(4-methyl-4H-1,2,4-triazol-3-yl)benzonitrile]	≤ 200	≤ 200
CC(NCC1CC1)c1ccc2c(c1)C(=O)N(c1cc(-c3ccc(C#N)cc3-c3nncn3C)cc(C3CC3)n1)C2 (centres unmarked) [AJI-1, 4-(2-Cyclopropyl-6-(6-(1-((cyclopropylmethyl)amino)ethyl)-1-oxoisoindolin-2-yl)pyridin-4-yl)-3-(4-methyl-4H-1,2,4-triazol-3-yl)benzonitrile]	≤ 200	≤ 200
C[C@@H](NCC1CC1)c1ccc2c(c1)C(=O)N(c1cc(-c3ccc(C#N)cc3-c3nncn3C)cc(C3CC3)n1)C2 [AJJ-1, (R)-4-(2-Cyclopropyl-6-(6-(1-((cyclopropylmethyl)amino)ethyl)-1-oxoisoindolin-2-yl)pyridin-4-yl)-3-(4-methyl-4H-1,2,4-triazol-3-yl)benzonitrile]	≤ 200	≤ 200
C[C@H](NCC1CC1)c1ccc2c(c1)C(=O)N(c1cc(-c3ccc(C#N)cc3-c3nncn3C)cc(C3CC3)n1)C2 [AJK-1, (S)-4-(2-Cyclopropyl-6-(6-(1-((cyclopropylmethyl)amino)ethyl)-1-oxoisoindolin-2-yl)pyridin-4-yl)-3-(4-methyl-4H-1,2,4-triazol-3-yl)benzonitrile]	≤ 200	≤ 200
Cn1cnnc1-c1cc(C#N)ccc1-c1cc(C2CC2)nc(N2Cc3ccc(O)cc3C2=O)c1 [AJL-2, 4-(2-cyclopropyl-6-(6-hydroxy-1-oxoisoindolin-2-yl)pyridin-4-yl)-3-(4-methyl-4H-1,2,4-triazol-3-yl)benzonitrile]	≤ 200	≤ 200
Cn1cnnc1-c1cc(C#N)ccc1-c1cc(C2CC2)nc(N2Cc3ccc(OC[C@@H](O)CO)cc3C2=O)c1 [AJM-3, (S)-4-(2-Cyclopropyl-6-(6-(2,3-dihydroxypropoxy)-1-oxoisoindolin-2-yl)pyridin-4-yl)-3-(4-methyl-4H-1,2,4-triazol-3-yl)benzonitrile]	≤ 200	≤ 200
Cn1cnnc1-c1cc(C#N)ccc1-c1cc(C2CC2)nc(N2Cc3ccc(OC[C@H](O)CO)cc3C2=O)c1 [AJN-3, (R)-4-(2-Cyclopropyl-6-(6-(2,3-dihydroxypropoxy)-1-oxoisoindolin-2-yl)pyridin-4-yl)-3-(4-methyl-4H-1,2,4-triazol-3-yl)benzonitrile]	≤ 200	≤ 200
CCOc1cc(-c2ccc(F)cc2-c2nncn2C)cc(N2Cc3c(OC)cc(CN(C)CC4(O)CCC4)cc3C2=O)n1 [AJO-2, 2-(6-Ethoxy-4-(4-fluoro-2-(4-methyl-4H-1,2,4-triazol-3-yl)phenyl)pyridin-2-yl)-6-((((1-hydroxycyclobutyl)methyl)(methyl)amino)methyl)-4-methoxyisoindolin-1-one]	≤ 200	≤ 200
Cn1cnnc1-c1cc(C#N)ccc1-c1cc(C2CC2)cc(N2Cc3ccc(CO)cc3C2=O)c1 [AJP-7, 3′-Cyclopropyl-5′-(6-(hydroxymethyl)-1-oxoisoindolin-2-yl)-2-(4-methyl-4H-1,2,4-triazol-3-yl)-[1,1′-biphenyl]-4-carbonitrile]	200 to 1000	1000 to 10000
COCCNCc1ccc2c(c1)C(=O)N(c1cc(-c3ccc(C#N)cc3-c3nncn3C)cc(C3CC3)c1)C2 [AJQ-2, 3′-Cyclopropyl-5′-(6-(((2-methoxyethyl)amino)methyl)-1-oxoisoindolin-2-yl)-2-(4-methyl-4H-1,2,4-triazol-3-yl)-[1,1′-biphenyl]-4-carbonitrile]	≤ 200	≤ 200
Cn1cnnc1-c1cc(C#N)ccc1-c1cc(C2CC2)cc(N2Cc3ccc(CNCC4CC4)cc3C2=O)c1 [AJR-1, 3′-Cyclopropyl-5′-(6-{[(cyclopropylmethyl)amino]methyl}-1-oxo-3H-isoindol-2-yl)-2-(4-methyl-1,2,4-triazol-3-yl)-[1,1′-biphenyl]-4-carbonitrile]	≤ 200	≤ 200
CN(Cc1ccc2c(c1)C(=O)N(c1cc(-c3ccc(F)cc3-c3nncn3C)cc(C3CC3)n1)C2)CC1(O)CCC1 [AJS-1, 2-(6-Cyclopropyl-4-(4-fluoro-2-(4-methyl-4H-1,2,4-triazol-3-yl)phenyl)pyridin-2-yl)-6-((((1-hydroxycyclobutyl)methyl) (methyl)amino)methyl)isoindolin-1-one]	≤ 200	≤ 200
CCOc1cc(-c2ccc(F)cc2-c2nncn2C)cc(N2Cc3ccc(CN(C)CC4(O)CCC4)cc3C2=O)n1 [AJT-1, 2-{6-Ethoxy-4-[4-fluoro-2-(4-methyl-1,2,4-triazol-3-yl)phenyl]pyridin-2-yl}-6-({[(1-hydroxycyclobutyl)methyl] (methyl)amino}methyl)-3H-isoindol-1-one]	≤ 200	≤ 200
